Data published in patent publication US6528534B2 (Millennium Pharmaceuticals, Inc., priority 1995, dated 2003).
Where a name gives a salt, the structure may show the parent alone.

What was measured:
[1] = system: human platelet-rich plasma; test: Platelet aggregation assay, Aggregation-Human PRP/ADP; type: cell-based; conditions: inhibition of ADP-induced aggregation of human platelet-rich plasma
Description: No. 2—The Platelet Aggregation Assay
In addition to the ELISA IIb-IIIa assay previously described the Aggregation-Human PRP/ADP Assay is useful for evaluating therapeutic compounds.
Platelet-rich plasma was prepared from healthy human volunteers for use in determining inhibition of platelet aggregation by the compounds. Blood was collected via a 21-gauge butterfly cannula, using a two-syringe technique into 1/10 volume of 3.8% trisodium citrate.
Platelet-rich plasma was prepared at room temperature by centrifugation of the citrated whole blood at 100×g for twelve minutes. The platelet rich plasma contained approximately 200-400,000 platelets/μl.
Platelet-poor plasma was prepared by centrifugation of citrated whole blood at 12,000×g for 2 minutes.
Platelet aggregation was assayed in a 4-channel platelet aggregatiob profiler (PAP-4, Biodata, Hatboro, Pa.) according to the manufacturers directions. Inhibition of platelet aggregation was studied by adding varying amounts of adenosine diphosphate (ADP) to stirred human platelet-rich plasma. Specifically, the human platelet-rich plasma was incubated with the compound being tested for 1 minute at 37° C. prior to the addition of a variety of aggregating agents most often ADP 5 μM, but also 1 μg/ml collagen, 1 μM U46619 and 0.3 μM platelet activating factor.

GPIIb-IIIa = molecular target: T1, GPIIb-IIIa (Homo sapiens, UniProt P05106+P08514); test: ELISA IIb-IIIa assay (fibrinogen binding to immobilized GPIIb-IIIa); conditions: inhibition of biotinylated fibrinogen binding to plate-coated purified platelet GPIIb-IIIa receptor
T1 construct: Purified platelet GPIIb-IIIa receptor was prepared as described by Fitzgerald; from tissue; host or cells: platelets
T1 sequence (P08514 32-887 limits assumed): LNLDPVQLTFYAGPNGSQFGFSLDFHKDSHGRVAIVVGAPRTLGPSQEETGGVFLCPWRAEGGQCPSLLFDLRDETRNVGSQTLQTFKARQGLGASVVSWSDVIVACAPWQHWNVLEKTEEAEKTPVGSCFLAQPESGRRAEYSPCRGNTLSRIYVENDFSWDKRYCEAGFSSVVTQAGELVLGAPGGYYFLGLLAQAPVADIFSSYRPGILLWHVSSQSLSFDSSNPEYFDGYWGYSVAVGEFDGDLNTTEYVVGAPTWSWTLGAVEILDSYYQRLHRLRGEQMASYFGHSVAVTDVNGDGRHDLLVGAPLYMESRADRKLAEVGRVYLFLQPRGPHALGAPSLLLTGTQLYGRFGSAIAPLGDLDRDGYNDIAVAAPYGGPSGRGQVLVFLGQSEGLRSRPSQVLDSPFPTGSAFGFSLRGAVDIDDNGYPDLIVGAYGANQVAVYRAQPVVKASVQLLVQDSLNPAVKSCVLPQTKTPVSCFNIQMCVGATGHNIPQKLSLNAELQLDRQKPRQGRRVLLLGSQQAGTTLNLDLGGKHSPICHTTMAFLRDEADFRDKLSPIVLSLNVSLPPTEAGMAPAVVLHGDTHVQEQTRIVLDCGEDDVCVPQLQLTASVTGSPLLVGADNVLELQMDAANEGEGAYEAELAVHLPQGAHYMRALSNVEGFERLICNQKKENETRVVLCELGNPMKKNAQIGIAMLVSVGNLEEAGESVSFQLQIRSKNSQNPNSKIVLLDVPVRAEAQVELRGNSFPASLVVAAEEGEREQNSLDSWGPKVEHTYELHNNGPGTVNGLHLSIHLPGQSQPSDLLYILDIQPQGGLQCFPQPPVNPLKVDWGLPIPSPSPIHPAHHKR
T1 sequence (P08514 891-1039 limits assumed): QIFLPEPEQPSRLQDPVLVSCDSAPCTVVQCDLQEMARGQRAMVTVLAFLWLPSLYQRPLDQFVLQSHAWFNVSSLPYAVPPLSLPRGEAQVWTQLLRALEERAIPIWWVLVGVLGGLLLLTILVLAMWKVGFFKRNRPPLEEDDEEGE
T1 sequence (P05106 27-788): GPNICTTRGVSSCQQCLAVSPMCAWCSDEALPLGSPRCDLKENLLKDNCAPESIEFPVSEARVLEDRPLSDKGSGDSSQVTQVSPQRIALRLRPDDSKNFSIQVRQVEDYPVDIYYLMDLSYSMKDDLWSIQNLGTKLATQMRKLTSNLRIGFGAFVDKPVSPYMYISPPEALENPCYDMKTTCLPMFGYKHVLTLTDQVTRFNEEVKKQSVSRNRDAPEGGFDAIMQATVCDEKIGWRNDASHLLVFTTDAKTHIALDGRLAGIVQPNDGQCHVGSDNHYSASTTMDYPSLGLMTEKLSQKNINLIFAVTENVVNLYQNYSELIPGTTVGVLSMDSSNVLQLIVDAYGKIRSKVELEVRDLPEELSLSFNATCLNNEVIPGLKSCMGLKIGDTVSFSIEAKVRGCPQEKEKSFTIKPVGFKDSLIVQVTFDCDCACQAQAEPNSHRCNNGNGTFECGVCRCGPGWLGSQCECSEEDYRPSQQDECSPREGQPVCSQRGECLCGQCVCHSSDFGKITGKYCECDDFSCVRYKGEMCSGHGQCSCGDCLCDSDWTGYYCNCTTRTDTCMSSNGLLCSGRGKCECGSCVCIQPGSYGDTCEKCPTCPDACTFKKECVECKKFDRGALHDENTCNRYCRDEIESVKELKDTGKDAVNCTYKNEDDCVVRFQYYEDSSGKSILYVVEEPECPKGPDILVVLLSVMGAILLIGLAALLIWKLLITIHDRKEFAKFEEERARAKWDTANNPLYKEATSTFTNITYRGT
Description: No. 1—The ELISA IIb-IIIa Assay:
In the following assay, GPIIb-IIIa is prepared in purified form, by a method such as described by Fitzgerald, L. A., et al., Anal Biochem (1985) 151:169-177, (the disclosure of which is incorporated herein by reference). GPIIb-IIIa is coated onto microtiter plates. The coated support is then contacted with fibrinogen and with the test material (e.g., compounds of Formula I) and incubated for a sufficient time to permit maximal binding of fibrinogen to the immobilized GPIIb-IIIa. Fibrinogen is typically provided at a concentration of about 5-50 nM and the test material can, if desired, be added at a series of dilution. Typical incubations are 2 to 4 hours at 25° C., the time and temperature being interdependent.
After incubation, the solution containing the fibrinogen and test material is removed and the level of binding of fibrinogen measured by quantitating bound fibrinogen to GPIIb-IIIa. Any suitable means of detection may be used, but it is convenient to employ labeled fibrinogen, for example using biotinylated labels. Such methods are well known in the art.
A. Description of Assays—Plate Assays
Purified platelet GPIIb-IIIa receptor was prepared as described by Fitzgerald, L. A., et al., Anal Biochem (1985) 151:169-177 (1985). Vitronectin receptor was prepared as described by Smith, J. W., J. Biol Chem (1988) 263:18726-18731. After purification, the receptors were stored in 0.1% Triton X-100 at 0.1-1.0 mg/ml.
The receptors were coated to the wells of 96-well flat-bottom ELISA plates (Linbro EIA-Plus microtiter plate, Flow Laboratories) after diluting 1:200 with a solution of 20 mM Tris-HCl, 150 mM NaCl, 1 mM CaCl2, pH 7.4, to reduce the Triton X-100 concentration to below its critical micellar concentration and adding an aliquot of 100 ul to each well. The wells were all allowed to incubate overnight at 4° C., and then aspirated to dryness. Additional sites were blocked by the addition of bovine serum albumin (BSA) at 35 mg/ml in the above buffer for two hours at 30° C. to prevent nonspecific binding. The wells were then washed once with binding buffer ([…] Tris-HCl, 100 mM NaCl 2 mM CaCl2, 1 mg/ml BSA).
The corresponding ligands (fibrinogen, von Willebrand Factor, or vitronectin) were conjugated to biotin using commercially available reagents and standard protocols. The labeled ligands were added to the receptor-coated wells at final concentration of 10 nM (100 ul/well) and incubated for 3 hours at 25° C. in the presence or absence of the test samples. After incubation, the wells are aspirated to dryness and bound ligand is quantitated.
The bound protein is detected by the addition of antibiotin antibody conjugated to alkaline phosphatase followed by addition of substrate (p-nitrophenyl phosphate), and determination of the optical density of each well at […]. Decreased color development is observed in wells incubated with test samples which inhibit binding of ligand to receptor.

| SMILES | IC50 [1] | IC50 (GPIIb-IIIa) | melting point |
| --- | --- | --- | --- |
| N=C(N)c1ccc(C(=O)N2CCC3(CCN(C(=O)CCC(=O)O)CC3)CC2)cc1 [Example 41, 4-((3-(4-Aminoiminomethyl)benzoyl)-3,9-diaza-spiro[5.5]undec-9-25 yl)-4-oxobutanoic Acid] | 14000 nM | 15000 nM | – |
| CCOC(=O)CCN1CCC2(CC1)CC(c1ccc(C(=N)N)cc1)=NO2 [Example 14, Hydrochloride] | 640 nM | – | – |
| CCOC(=O)CCCC(=O)N1CCC2(CC1)CC(c1ccc(C(=N)N)cc1)=NO2 [Example 16, Ethyl 5-(3-(4-(Aminoiminomethyl)phenyl)-1-oxa-2,8-diaza-spiro[4.]dec-2-en-8-yl)-5-oxopentanoate Hydrochloride] | 200 nM | – | – |
| CCOC(=O)CC1CCC2(CC1)CCN(C(=O)c1ccc(C(=N)N)cc1)CC2 [Example 1, Ethyl (3-(4-(Aminoiminomethyl)benzoyl)-3-aza-spiro[5.5]undec-9-yl)acetate Hydrochloride] | 100000 nM | > 10000 nM | – |
| N=C(N)c1ccc(C(=O)N2CCC3(CCN(C(=O)CCCC(=O)O)CC3)CC2)cc1 [Example 42, 5-((3-(4-Aminoiminomethyl)benzoyl)-3,9-diaza-spiro[5.5]undec-9-yl)-5-oxopentanoic Acid] | 10000 nM | 3500 nM | – |
| N=C(N)c1ccc(C2=NOC3(CCN(C(=O)CCCC(=O)O)CC3)C2)cc1 [Example 17] | 84 nM | – | – |
| N=C(N)c1ccc(C(=O)N2CCC3(CC2)C(=O)N(CC(=O)O)C(=O)N3Cc2ccccc2)cc1 [Example 13, Trifluoroacetate] | > 100000 nM | – | – |
| N=C(N)c1ccc(C2=NOC3(CCN(CCCCC(=O)O)CC3)C2)cc1 [Example 19] | 450 nM | – | – |
| O=C(O)CN1CCC2(CCN(CCc3ccncc3)CC2)CC1 [Example 20, (9-(2-(Pyridin-4-yl)ethyl)-3,9-diazaspiro[5.5]undec-3-yl)acetic Acid Bistrifluoroacetate] | > 100000 nM | – | – |
| N=C(N)c1ccc(CC(=O)N2CCC3(CC2)CCN(CC(=O)O)C(=O)O3)cc1 [Example 32] | 2130 nM | 200 nM | – |
| O=C(O)CC1CCC2(CC1)CCN(CCc1ccncc1)CC2 [Example 23, (3-(2-(Pyridin-4-yl)ethyl)-3-azaspiro[5.5]undec-9-yl)acetic Acid] | > 100000 nM | – | – |
| N=C(N)c1ccc(C(=O)N2CCC3(CCC(CC(=O)O)CC3)CC2)cc1 [Example 2, (3-(4-(Aminoiminomethyl)benzoyl)-3-aza-spiro[5.5]undec-9-yl)acetic Acid Hydrochloride] | 410 nM | 8.2 nM | – |
| N=C(N)c1ccc(C2=NOC3(CCN(CC(=O)O)CC3)C2)cc1 [Example 6] | 4000 nM | – | – |
| N=C(N)c1ccc(COC2CCC3(CC2)CN(CC(=O)O)C(=O)O3)cc1 (stereo not drawn) [Example 34, (8-(4-(Aminoiminomethyl)benzyloxy)-2-oxo-1-oxa-3-aza-spiro[4.5]dec-3-yl)acetic Acid] | 1290 nM | 350 nM | – |
| N=C(N)NCCCCCC(=O)N1CCC2(CC1)CN(CC(=O)O)C(=O)O2 [Example 39] | 12000 nM | 2700 nM | – |
| N=C(N)c1ccc(N2CC3(CCN(CCCC(=O)O)CC3)OC2=O)cc1 [Example 4, 4-(3-(4-(Aminoiminomethyl)phenyl)-2-oxo-1-oxa-3,8-diaza-5 spiro[4.5]dec-8-yl)butanoic Acid Bistrifluoroacetate] | 3000 nM | – | – |
| N=C(N)c1ccc(C(=O)NC2CCC3(CC2)CN(CC(=O)O)C(=O)O3)cc1 (stereo not drawn) [Example 36, (8-(4-(Aminoiminomethyl)benzamido)-2-oxo-1-oxa-3-aza-spiro[4.5]dec-3-yl)acetic Acid] | 510 nM | 170 nM | 280 to 284 °C |

| SMILES | IC50 [1] | IC50 (GPIIb-IIIa) | melting point |
| --- | --- | --- | --- |
| CCOC(=O)CCCN1CCC2(CC1)CC(c1ccc(C(=N)N)cc1)=NO2 [Example 7, Hydrochloride] | 2800 nM | – | – |
| O=C(O)CC1CCC2(CC1)CCN(CCC1CCNCC1)CC2 [Example 25, (3-(2-(Piperidin-4-yl)ethyl)-3-azaspiro[5.5]undec-9-yl)acetic Acid] | > 10000 nM | – | – |
| N=C(N)c1ccc(CC(=O)N2CCC3(CC2)CN(CC(=O)O)C(=O)O3)cc1 [Example 31, (8-(2-(4-Aminoiminomethyl)acetyl)-2-oxo-1-oxa-3,8-diaza-spiro[4.5]dec-3-yl)acetic Acid.] | 1110 nM | 74 nM | – |
| N=C(N)c1ccc(C2=NOC3(CCN(CCC(=O)O)CC3)C2)cc1 [Example 15, 4-(3-(4-(Aminoiminomethyl)phenyl)-1-oxa-2,8-diaza-spiro[4.5]dec-2-en-8-yl)propanoic Acid] | 110 nM | – | – |
| CCOC(=O)CC1CCC2(CC1)CCN(CCC1CCNCC1)CC2 [Example 24, Ethyl (3-(2-(Piperidin-4-yl)ethyl)-3-azaspiro[5.5]undec-9-yl)acetate] | > 100000 nM | – | – |
| N=C(N)c1ccc(C(=O)N2CCC3(CC2)CN(CCCC(=O)O)C(=O)CO3)cc1 [Example 12, Hydrochloride] | > 10000 nM | – | – |
| CCOC(=O)CC1CCC2(CC1)CCN(CCc1ccncc1)CC2 [Example 22, Ethyl (3-(2-(Pyridin-4-yl)ethyl)-3-azaspiro[5.5]undec-9-yl)acetate] | > 100000 nM | – | – |
| N=C(N)NCCCCC(=O)N1CCC2(CC1)CN(CC(=O)O)C(=O)O2 [Example 38] | 7000 nM | 1850 nM | – |
| O=C(O)CN1CCC2(CCN(CCC3CCNCC3)CC2)CC1 [Example 27, (9-(2-(Piperidin-4-yl)ethyl)-3,9-diazaspiro[5.5]undec-3-yl)acetic Acid Tristrifluoroacetate] | 100000 nM | – | – |
| N=C(N)c1ccc(C(=O)N2CCC3(CC2)NC(=O)N(CCCC(=O)O)C3=O)cc1 [Example 21, Trifluoroacetate] | > 10000 nM | – | – |
| N=C(N)NCCCC(=O)N1CCC2(CC1)CN(CC(=O)O)C(=O)O2 [Example 37] | 52000 nM | 19000 nM | – |
| O=C(O)CN1C(=O)CC2(CCN(CCc3ccncc3)CC2)CC1=O [Example 26, (9-(2-(Pyridin-4-yl)ethyl)-2,4-dioxo-3,9-diazaspiro[5.5]undec-3-yl)acetic Acid Trifluoroacetate] | > 100000 nM | – | – |
| N=C(N)c1ccc(C2=NOC3(CCN(CCCC(=O)O)CC3)C2)cc1 [Example 8] | 320 nM | – | – |
| N=C(N)c1ccc(CC(=O)NC2CCC3(CC2)CN(CC(=O)O)C(=O)O3)cc1 (stereo not drawn) [Example 35, (8-(2-(4-(Aminoiminomethyl)phenyl)acetamido)-2-oxo-1-oxa-3-aza-spiro[4.5]dec-3-yl)acetic Acid] | 770 nM | 190 nM | 193 to 196 °C |
| N=C(N)c1ccc(C(=O)N2CCC3(CCN(CC(=O)O)C(=O)O3)CC2)cc1 [Example 33, (9-(4-(Aminoiminomethyl)benzoyl)-2-oxo-1-oxa-3,9-diaza-spiro[5.5]undec-3-yl)acetic Acid] | 66000 nM | 16500 nM | – |
| N=C(N)c1ccc(C(=O)N2CCC3(CC2)CN(CC(=O)O)C(=O)O3)cc1 [Example 30, (8-(4-(Aminoiminomethyl)benzoyl)-2-oxo-1-oxa-3,8-diaza-spiro[4.5]dec-3-yl)acetic Acid] | 80000 nM | 29000 nM | 157 to 159 °C |
| N=C(N)c1ccc(C2=NOC3(CCN(C(=O)CCC(=O)O)CC3)C2)cc1 [Example 10] | 1000 nM | – | – |
